The results in this text go back to patent US10221185B2, “Crystal form of substituted aminopyran derivativek” (Sichuan Haisco Pharmaceutical Co., Ltd., priority 2015, dated 2019).

Type in all cases: physicochemical
Data set [1] in a line: Stability of crystal forms of Compound A kept dry at room temperature. The settings on record: Kept dry at room temperature for 14 d.
Data set [2] can be described thus: Chemical stability of Crystal form IV of Compound A (influencing factors: high temperature, light exposure, high humidity). From the text:
A sample was investigated under the conditions and sampling time points shown in Table 4 below for influencing factors, and the results are shown in Table 5 below.

Data set [3] in a line: Slurry competition experiments of crystal forms of Compound A at room temperature. The text has this:
2. Room temperature competition experiment between Crystal form I and Crystal forms II, III, IV of Compound A, examining the stability of the crystal forms in solvents such as water, ethanol, and water:ethanol (1:1) at room temperature, see Table 2 for details.

Setting [4] is: High humidity (92.5% RH), unsealed, 10 d.
The mark [5] stands for this setting: High humidity (92.5% RH), unsealed, 60 d.
Where [6] appears, read: High temperature, unsealed, 40° C., 10 d.
The mark [7] stands for this setting: High temperature, unsealed, 40° C., 60 d.
Setting [8] is: High temperature, unsealed, 60° C., 10 d.
The mark [9] stands for this setting: High temperature, unsealed, 60° C., 60 d.

SMILES strings stand for the structures.

In the case of `CS(=O)(=O)n1cc2c(n1)CN([C@@H]1C[C@H](N)[C@@H](c3cc(F)ccc3F)O[C@@H]1C(F)(F)F)C2` [Crystal form II, (2R,3S,5R,6S)-2-(2,5-difluorophenyl)-5-(2-(methylsulfonyl)pyrrolo[3,4-c]pyrazol-5(2H,4H,6H)-yl)-6-(trifluoromethyl)tetrahydro-2H-pyran-3-amine], in data set [1], the “Crystal form after transformation” value was “Crystal form II” and the “Stability of crystal form (conclusion in words)” value was “good stability”.

Regarding `CS(=O)(=O)n1cc2c(n1)CN([C@@H]1C[C@H](N)[C@@H](c3cc(F)ccc3F)O[C@@H]1C(F)(F)F)C2` [Crystal form III, (2R,3S,5R,6S)-2-(2,5-difluorophenyl)-5-(2-(methylsulfonyl)pyrrolo[3,4-c]pyrazol-5(2H,4H,6H)-yl)-6-(trifluoromethyl)tetrahydro-2H-pyran-3-amine], in data set [1], the “Crystal form after transformation” value was “Crystal form III” and the “Stability of crystal form (conclusion in words)” value was “good stability”.

For `CS(=O)(=O)n1cc2c(n1)CN([C@@H]1C[C@H](N)[C@@H](c3cc(F)ccc3F)O[C@@H]1C(F)(F)F)C2` [Crystal form IV of Compound A, (2R,3S,5R,6S)-2-(2,5-difluorophenyl)-5-(2-(methylsulfonyl)-pyrrolo[3,4]pyrazol-5(2H,4H,6H)-yl)-6-(trifluoromethyl)tetrahydro-2H-pyran-3-amine], the “Crystal form after transformation” value in data set [1] is listed as “Crystal form IV”. For the same compound, the “Stability of crystal form (conclusion in words)” value in data set [1] was “good stability”. The Appearance entry in data set [2] (0 d) is “Off-white”; in data set [2] (setting [4]), “Light yellow”; in data set [2] (setting [5]), “Light yellow”; in data set [2] (setting [6]) it was “Light yellow”; in data set [2] (setting [7]), “Light yellow”; in data set [2] (setting [8]), “Light yellow”. Moreover, the Appearance entry is listed as “Light yellow” in data set [2] (setting [9]); “Off-white” in data set [2] (Light exposure, unsealed, 10 d); “Off-white” in data set [2] (Light exposure, unsealed, 60 d). The Moisture in data set [2] (0 d) was 0.19%; in data set [2] (setting [4]), 0.27%; in data set [2] (setting [5]) it was 0.20%; in data set [2] (setting [6]), 0.25%; in data set [2] (setting [7]), 0.18%; in data set [2] (setting [8]), 0.36%. Further, the Moisture in data set [2] (setting [9]) came out at 0.15%; in data set [2] (Light exposure, unsealed, 10 d) it was 0.32%; in data set [2] (Light exposure, unsealed, 60 d), 0.16%. The “Purity of Compound A” value in data set [2] (0 d) is listed as 99.67%; in data set [2] (setting [4]), 99.57%; in data set [2] (setting [5]) it was 99.28%; in data set [2] (setting [6]), 99.54%; in data set [2] (setting [7]), 99.43%; in data set [2] (setting [8]) it was 99.48%. The “Purity of Compound A” value in data set [2] (setting [9]) was 99.15%; in data set [2] (Light exposure, unsealed, 10 d), 99.51%; in data set [2] (Light exposure, unsealed, 60 d) it was 99.43%. In addition, in data set [3], the “Relative stability of crystal forms (conclusion in words)” value is “the most stable crystal form at room temperature”.
